The test system of one data set is Vero cells. As to the kind of experiment: Cell viability assay (MTT) in Vero cells. The conditions noted are these: Vero cells. Format: cell-based. Here is the method: (§1) The cell toxicity induced by the three tested fractions and the isolated flavonoids was evaluated in a growing Vero cell. […] To this end, Vero cells (1 × 10^4 cells/well) were plated in 96-well microplates 24 h beforehand. […] After a period of 120 h at 37 °C in a 5% CO2 atmosphere, the culture medium was removed from the plate, and 50 μL of recently prepared MTT solution (1 mg/mL) was then added. The 96-well microplate was placed in a CO2 incubator for 4 h at 37 °C. After this period, the MTT solution was replaced by DMSO. Then, the optical density at 540 nm (OD540) was measured using a BioTekTM ELx800TM 96-well plate reader (BioTek Instruments Inc., Winooski, VT. The OD540 subtraction of treated cells compared to untreated cells was calculated. […] The CC20 value was empirically defined as the maximum safe limit to perform the antiviral screening. Results were expressed as mean ± SD of three independent replicates. The differences in viral titer of treated and untreated infected cells were analyzed according to ANOVA followed by the Dunnett test using GraphPad Prism software v.5.01 (GraphPad Software, La Jolla, CA, USA). The drug concentration that reduced viral titer by 50% (IC50) was defined using the same software. […] The CC50 and CC20 values were also calculated using GraphPad Prism software in a non-linear regression interpretation. The selective index (SI) was based on the ratio math of CC50 and IC50 values. Data were reported as the mean ± standard deviation (SD) of three independent experiments. Significance was only considered when p < 0.05.

The test system of another data set is ZIKV. Put plainly: Post-treatment antiviral assay, viral titration by TCID50, ZIKV-infected Vero cells. Format: cell-based. To be noted: for % ZIKV Inhibition / IC50: Vero cells; for % ZIKV Inhibition: MOI 0.1, treated with CC20 of each sample for 120 h, TCID50; for IC50 / SI: ZIKV; for IC50: MOI 0.1, concentration to reduce viral titer by 50%; for SI: ratio of CC50 and IC50; for ZIKV-induced cytopathic effect in Vero cell monolayers: treatment at CC20, microscopy, Figure 4B,C. The method, then: (§2) One day prior to infection with the ZIKV or DENV strain, Vero cells were seeded in 24-well plates (5 × 10^4 cells/well). The infection was performed at the multiplicity of infection (MOI) of 0.1 for 2 h at 37 °C in 5% CO2. After virus internalization, the inoculum was removed, and the cells were washed using the growth medium. […] 6-MMPr, used as positive control drug, was also included as a drug treatment in some wells [33]. Controls of mock (non-infected) and infected non-treated cells were included. At 120 h post-infection (hpi), the cytopathic effect was evaluated using an inverted microscope (AE2000 binocular microscope, Motic, Hong Kong), and cells were photographed with a smartphone. The cell supernatant was harvested at 120 hpi and stored at −80 °C for posterior virus titration, using the TCID50 method.
(§3) The TCID50 method was used here to perform viral titration. The titer values were expressed as log10 TCID50/mL. One day prior to titration, Vero cells were seeded in a 96-well plate (1 × 10^4 cells/well) at 37 °C in a 5% CO2 incubator. The cell supernatants that were previous stored (see item 2.5—cytopathic effect assay) were serially diluted 10-fold in DMEM and submitted to the cell monolayer. After incubation for 5 days at 37 °C and 5% CO2, the cytopathic effect was observed through an inverted optical microscope, and the reduction in viral titer was defined according to Reed–Muench parameters.
(§4) The differences in viral titer of treated and untreated infected cells were analyzed according to ANOVA followed by the Dunnett test using GraphPad Prism software v.5.01 (GraphPad Software, La Jolla, CA, USA). The drug concentration that reduced viral titer by 50% (IC50) was defined using the same software. This represents the compound concentration required to reduce ZIKV or DENV titer by 50% when compared with the non-treated cells. The CC50 and CC20 values were also calculated using GraphPad Prism software in a non-linear regression interpretation. The selective index (SI) was based on the ratio math of CC50 and IC50 values. Data were reported as the mean ± standard deviation (SD) of three independent experiments. Significance was only considered when p < 0.05.

Another data set relates to DENV-2. Put plainly: Post-treatment antiviral assay, viral titration by TCID50, DENV-infected Vero cells. Format: cell-based. To be noted: for IC50 / SI: DENV; for IC50 / % DENV-2 Inhibition: Vero cells; for IC50: MOI 0.1, concentration to reduce viral titer by 50%; for SI: ratio of CC50 and IC50; for % DENV-2 Inhibition: MOI 0.1, treated with CC20 of each sample for 120 h, TCID50. The method, then: as §2, §3, §4

Data set [1] in a line: Cell viability assay (MTT) in Vero cells. Format: cell-based. To be noted: African green monkey. Here is the method: as §1
Another data set concerns Hela cells. The arrangement: method as in PMID 29354400. The conditions noted are these: at the tested concentrations, ref [59]; cited from earlier work.
Where [2] appears, read: Table 3, non-toxic concentration used in the antiviral assays.

The structures appear in SMILES notation.

Consider 3 molecules from PMC10609720, “Antiviral Activity of Flavonoids from Geopropolis of the Brazilian Jandaira Bee against Zika and Dengue Viruses” (Pharmaceutics, 2023).

For the molecule `CSc1ncnc2c1ncn2[C@@H]1O[C@H](CO)[C@@H](O)[C@H]1O` [6-MMPr, 6-methylmercaptopurine riboside, reference compound], the CC50 (in general, the concentration giving 50% cytotoxicity) in the data set with Vero cells (Table 2, MTT method, 120 h) is 291 µM. In the data set on Vero cells (Table 3), the CC50 was 291 µM. The molecule further displayed a CC20 in the data set on Vero cells (setting [2]) of 60.5 μM/mL. Besides, in the data set with ZIKV, the “% ZIKV Inhibition” value worked out at 51.5%; the IC50 – broadly, the concentration at which inhibition is half-maximal – was 24.5 µM; the SI came out at 11.9. In the data set with DENV-2, the midpoint of inhibition, the IC50, lay at 18.2 µM; the SI amounted to 16.0; the “% DENV-2 Inhibition” value was 48.3%.
In data set [1], `COc1cc(O)c2c(c1)O[C@H](c1ccc(O)cc1)CC2=O` [7-O-methyl naringenin] returned a CC50 at 120 h of 240 µM. In addition, in the data set on ZIKV, the “% ZIKV Inhibition” value was found to be 30.3%, the SI came out at 18.7 and the “ZIKV-induced cytopathic effect in Vero cell monolayers” value is given as “prevented morphological modifications”. In the data set with ZIKV (Zika virus), the concentration for half-maximal inhibition (IC50) came out at 12.8 µM. Moreover, in the data set with DENV-2, the SI came to 7.7 and the “% DENV-2 Inhibition” value was 51.6%. Besides, the IC50 in the data set on DENV-2 (Dengue virus, DENV2) stood at 30.9 µM. Also, in the data set with DENV-2 (treatment at CC20, microscopy, Figure 5B,C), the “DENV-induced cytopathic effect in Vero cell monolayers” value was “prevented morphological modifications”. In addition, the cell viability (in general, a per cent measure of how many cells are alive, often set against a control) in the data set with Hela cells is given as 100%.
With `O=C1C[C@@H](c2ccc(O)cc2)Oc2cc(O)cc(O)c21` [Naringenin], half-maximal cytotoxicity in data set [1] (CC50 at 120 h) was put at 242 µM. Further, the CC20 in the data set with Vero cells (Table 2, MTT method, 120 h) was 86.43 µM/mL; with Vero cells (setting [2]), 86.43 μM/mL. Moreover, the “% ZIKV Inhibition” value with ZIKV is recorded as 34.7%. In addition, the IC50 was 58.9 µM with ZIKV (Zika virus) and 42.9 µM in the data set with DENV-2 (Dengue virus, DENV2). The “ZIKV-induced cytopathic effect in Vero cell monolayers” value in the data set on ZIKV is listed as “prevented morphological modifications”. For the same molecule, in the data set on DENV-2, the “% DENV-2 Inhibition” value came out at 61.5%.
